{"source": "BindingDB's records for patent US12281118", "about": "(Shanghai Ringene Biopharma, 2025)"}
{"target": "T1, Tyrosine-protein phosphatase non-receptor type 11 (Homo sapiens, UniProt Q06124)", "T1 sequence (Q06124 whole entry)": "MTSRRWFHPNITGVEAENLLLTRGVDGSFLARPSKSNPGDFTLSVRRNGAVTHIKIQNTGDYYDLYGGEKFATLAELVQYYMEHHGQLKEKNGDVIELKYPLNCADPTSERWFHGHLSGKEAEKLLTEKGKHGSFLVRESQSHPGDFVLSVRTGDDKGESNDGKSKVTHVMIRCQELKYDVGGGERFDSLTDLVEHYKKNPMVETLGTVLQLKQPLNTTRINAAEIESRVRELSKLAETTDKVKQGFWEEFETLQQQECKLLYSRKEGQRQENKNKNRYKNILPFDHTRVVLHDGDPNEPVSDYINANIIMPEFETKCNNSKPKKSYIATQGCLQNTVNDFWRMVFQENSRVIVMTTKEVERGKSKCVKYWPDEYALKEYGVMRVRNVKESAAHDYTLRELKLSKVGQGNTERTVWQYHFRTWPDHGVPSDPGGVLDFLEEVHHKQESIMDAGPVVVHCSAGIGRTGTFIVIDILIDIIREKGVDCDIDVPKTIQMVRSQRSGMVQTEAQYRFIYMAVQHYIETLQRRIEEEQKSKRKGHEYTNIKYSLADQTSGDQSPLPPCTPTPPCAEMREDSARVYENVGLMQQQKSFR", "assay": "Test of Inhibitory Activity Assay", "description": "(1) Preparing 1×Reaction Buffer according to the BPS Biosciences' Instructions for Use of the SHP2 enzyme. (2) Preparing a compound concentration gradient: Test the test compound at 10 μM under 3× dilution for 10 concentrations, diluting to a 100% dimethyl sulfoxide solution at a 100× final concentration in a 384-well plate, and diluting the compound with Precision 4× for 10 concentrations. […] (3) Preparing the activation peptide solution at a 5× final concentration with the 1×Reaction Buffer, adding 5 μL of the solution to a reaction plate, respectively, and centrifuging at 1000 rpm for 1 min. (4) Preparing an enzyme solution at a 2.5× final concentration with the 1×Reaction Buffer, adding 10 μL of the solution to the reaction plate, respectively, centrifuging at 1000 rpm for 1 min, and incubating at room temperature for 60 min. […] (6) Adding 30 μL of stop test solution to stop the reaction, centrifuging at 1000 rpm for […], and mixing well by shaking. (7) Reading the conversion rate with a Caliper EZ Reader. (7) Data analysis:%Inhibition=Conversion%_max-Conversion%_sampleConversion%_max-Conversion%_min×100Wherein: Conversion %/_sample is the reading of a conversion rate of a sample; Conversion %_min: mean of negative control wells, which represents the reading of a conversion rate in absence of enzyme activity wells; Conversion %_max: mean of a ratio of positive control wells, which represents the reading of a conversion rate in absence of compound inhibition wells.", "units": {"IC50": "nM"}}
{"smiles": "Cc1nc(N2CCC(C)(N)CC2)n2ccnc2c1Sc1cccc(Cl)c1Cl", "note": "[US12281118, Example 25]", "IC50": 65}
{"smiles": "Cc1cc(N2CCC(C)(N)CC2)n2cnnc2c1-c1cccc(Cl)c1Cl", "note": "[US12281118, Example 23]", "IC50": "> 1000"}
{"smiles": "Cc1nc(N2CCC(C)(N)CC2)n2ncnc2c1-c1cccc(Cl)c1Cl", "note": "[US12281118, Example 21]", "IC50": "> 1000"}
{"smiles": "Cc1nc(N2CCC(C)(N)CC2)n2cnnc2c1-c1cccc(Cl)c1Cl", "note": "[US12281118, Example 22]", "IC50": "> 1000"}
{"smiles": "Cc1nc(N2CCC3(CC2)Cc2ccccc2[C@H]3N)n2ccnc2c1Sc1cccnc1C(F)(F)F", "note": "[US12281118, Example 2]", "IC50": 6.3}
{"smiles": "CC1(N)CCN(c2nc(CF)c(-c3cccc(Cl)c3Cl)c3nccn23)CC1", "note": "[US12281118, Example 28]", "IC50": 53}
